Values after ≈ are worked out from the molar mass of the structure shown. Positions of bridges follow the written chain, without caps; N, C: chain ends. Non-standard residues stand in square brackets, D forms with d. Residues, ends and D or L forms follow the SMILES beside them. *: point of attachment. Octanoyl(3-OH) = CCCCCC(O)CC(=O)*; Decanoyl = CCCCCCCCCC(=O)*; Dab = NCC[C@H](N)C(=O)O
Tests used:
[1] = system: A. baumannii SM1536 (pMQ124xlab1-mcr-1); test: MIC, microbial susceptibility assay; assay type: cell-based, Acinetobacter baumannii; details: A. baumannii SM1536 upon introduction of mcr-1
[2] = system: A. baumannii 0301 (mcr-1); test: MIC, microbial susceptibility assay; assay type: cell-based, Acinetobacter baumannii; details: A. baumannii 0301 upon introduction of mcr-1
A. baumannii 0295 = details: XDR A. baumannii 0295, mcr-1 −; ref CDC & FDA Antibiotic Resistant Isolate Bank; cited from earlier work
A. baumannii 0287 = details: XDR A. baumannii 0287, mcr-1 −; ref CDC & FDA Antibiotic Resistant Isolate Bank; cited from earlier work
A. baumannii 0296 = details: XDR A. baumannii 0296, mcr-1 −; ref CDC & FDA Antibiotic Resistant Isolate Bank; cited from earlier work
A. baumannii 0301 = details: XDR A. baumannii 0301, mcr-1 −; ref CDC & FDA Antibiotic Resistant Isolate Bank; cited from earlier work
A. baumannii 0286 = details: XDR A. baumannii 0286, mcr-1 −; ref CDC & FDA Antibiotic Resistant Isolate Bank; cited from earlier work
A. baumannii 0282 = details: XDR A. baumannii 0282, mcr-1 −; ref CDC & FDA Antibiotic Resistant Isolate Bank; cited from earlier work

## CCCCCC(O)CC(=O)N[C@@H](CCN)C(=O)N[C@H](C(=O)N[C@H](CO)C(=O)N[C@H]1CCNC(=O)[C@H](CC(C)C)NC(=O)[C@H](CCN)NC(=O)[C@H](CCN)NC(=O)[C@H]([C@@H](C)CC)NC(=O)[C@@H](CC(C)C)NC(=O)[C@H](CCN)NC1=O)[C@@H](C)O (stereo partly drawn) [L5] ({Octanoyl(3-OH)}-[Dab]T[dS][Dab][Dab][dL]I[Dab][Dab]L; lactam 4-C; N-terminus assumed)
[1]
  Fold increase in MIC: 4
[2]
  Fold increase in MIC: 2

## C[C@@H](O)[C@H]1C(=O)N2C(C(=O)O)=C(S[C@@H]3CN[C@H](C(=O)N(C)C)C3)[C@H](C)[C@H]12 [Meropenem]
A. baumannii 0295
  MIC: >8 µg/mL
A. baumannii 0287
  MIC: >8 µg/mL
A. baumannii 0296
  MIC: >8 µg/mL
A. baumannii 0301
  MIC: >8 µg/mL
A. baumannii 0286
  MIC: >8 µg/mL
A. baumannii 0282
  MIC: >8 µg/mL

## CCCCCCCCCC(=O)N[C@@H](CCN)C(=O)N[C@H](C(=O)N[C@H](CO)C(=O)N[C@H]1CCNC(=O)[C@H](CC(C)C)NC(=O)[C@H](CCN)NC(=O)[C@H](CCN)NC(=O)[C@H]([C@@H](C)CC)NC(=O)[C@@H](CC(C)C)NC(=O)[C@H](CCN)NC1=O)[C@@H](C)O [L4] (Decanoyl-[Dab]T[dS][Dab][Dab][dL]I[Dab][Dab]L; lactam 4-C; N-terminus assumed)
[1]
  Fold increase in MIC: 8
[2]
  Fold increase in MIC: 1

## CO/N=C(\C(=O)N[C@@H]1C(=O)N2C(C(=O)O)=C(CSc3nc(=O)c(=O)[nH]n3C)CS[C@H]12)c1csc(N)n1 [Ceftriaxone]
A. baumannii 0295
  MIC: >32 µg/mL
A. baumannii 0287
  MIC: >32 µg/mL
A. baumannii 0296
  MIC: >32 µg/mL
A. baumannii 0301
  MIC: >32 µg/mL
A. baumannii 0286
  MIC: >32 µg/mL
A. baumannii 0282
  MIC: >32 µg/mL

## CC(C)(O/N=C(\C(=O)N[C@@H]1C(=O)N2C(C(=O)[O-])=C(C[n+]3ccccc3)CS[C@H]12)c1csc(N)n1)C(=O)O [Ceftazidime]
A. baumannii 0295
  MIC: >128 µg/mL
A. baumannii 0287
  MIC: 128 µg/mL (≈ 234 µM)
A. baumannii 0296
  MIC: >128 µg/mL
A. baumannii 0301
  MIC: 128 µg/mL (≈ 234 µM)
A. baumannii 0286
  MIC: 128 µg/mL (≈ 234 µM)
A. baumannii 0282
  MIC: >128 µg/mL

## CO/N=C(\C(=O)N[C@@H]1C(=O)N2C(C(=O)[O-])=C(C[N+]3(C)CCCC3)CS[C@H]12)c1csc(N)n1 [Cefepime]
A. baumannii 0295
  MIC: >32 µg/mL
A. baumannii 0287
  MIC: 32 µg/mL (≈ 66.6 µM)
A. baumannii 0296
  MIC: >32 µg/mL
A. baumannii 0301
  MIC: >32 µg/mL
A. baumannii 0286
  MIC: 32 µg/mL (≈ 66.6 µM)
A. baumannii 0282
  MIC: >32 µg/mL

## CN(C)[C@@H]1C(O)=C(C(N)=O)C(=O)[C@@]2(O)C(O)=C3C(=O)c4c(O)cccc4[C@@](C)(O)[C@H]3C[C@@H]12 [Tetracycline]
A. baumannii 0295
  MIC: >32 µg/mL
A. baumannii 0287
  MIC: >32 µg/mL
A. baumannii 0296
  MIC: 32 µg/mL (≈ 72 µM)
A. baumannii 0301
  MIC: >32 µg/mL
A. baumannii 0286
  MIC: >32 µg/mL
A. baumannii 0282
  MIC: >32 µg/mL

## C[C@@H](O)[C@H]1C(=O)N2C(C(=O)O)=C(SCCN=CN)C[C@H]12 [Imipenem]
A. baumannii 0295
  MIC: >64 µg/mL
A. baumannii 0287
  MIC: 64 µg/mL (≈ 214 µM)
A. baumannii 0296
  MIC: 64 µg/mL (≈ 214 µM)
A. baumannii 0301
  MIC: >64 µg/mL
A. baumannii 0286
  MIC: >64 µg/mL
A. baumannii 0282
  MIC: 64 µg/mL (≈ 214 µM)

## COc1cc(Cc2cnc(N)nc2N)cc(OC)c1OC [Trimethoprim]
A. baumannii 0295
  MIC: >8 µg/mL
A. baumannii 0287
  MIC: >8 µg/mL
A. baumannii 0296
  MIC: >8 µg/mL
A. baumannii 0301
  MIC: >8 µg/mL
A. baumannii 0286
  MIC: >8 µg/mL
A. baumannii 0282
  MIC: >8 µg/mL

## CN(C)c1ccc(O)c2c1C[C@H]1C[C@H]3[C@H](N(C)C)C(O)=C(C(N)=O)C(=O)[C@@]3(O)C(O)=C1C2=O [Minocycline]
A. baumannii 0295
  MIC: 16 µg/mL (≈ 35 µM)
A. baumannii 0287
  MIC: <=4 μg/ml
A. baumannii 0296
  MIC: <=4 μg/ml
A. baumannii 0301
  MIC: 16 µg/mL (≈ 35 µM)
A. baumannii 0286
  MIC: 8 µg/mL (≈ 17.5 µM)
A. baumannii 0282
  MIC: 8 µg/mL (≈ 17.5 µM)

## O=C(O)c1cn(C2CC2)c2cc(N3CCNCC3)c(F)cc2c1=O [Ciprofloxacin]
A. baumannii 0295
  MIC: >8 µg/mL
A. baumannii 0287
  MIC: >8 µg/mL
A. baumannii 0296
  MIC: >8 µg/mL
A. baumannii 0301
  MIC: >8 µg/mL
A. baumannii 0286
  MIC: >8 µg/mL
A. baumannii 0282
  MIC: >8 µg/mL

From publication PMC10321319 (Nature, 2022)
